Experimental data reported in PMC7582905, “Effect of Disulfide Cyclization of Ultrashort Cationic Lipopeptides on Antimicrobial Activity and Cytotoxicity” (International Journal of Molecular Sciences, 2020).
Where a SMILES comes first, the peptide text is derived from it. Bridges are numbered along the chain shown (N, C = ends). The star is where a group is joined. Palmitoyl = CCCCCCCCCCCCCCCC(=O)*

Experiments:
Format in all cases: cell-based
[1] = tested on: Pseudomonas aeruginosa ATCC 9027; settings: ATCC 9027, 24 h
Description: (§1) The Staphylococcus aureus ATCC 25923, Staphylococcus epidermidis ATCC 14990, Escherichia coli ATCC 25922, Pseudomonas aeruginosa ATCC 9027, Candida albicans ATCC 10231, Candida glabrata ATCC 15126, Candida lipolytica PCM 2680-FY, and Candida tropicalis PCM 2709-FY strains were acquired from the Polish Collection of Microorganisms (PCM, Polish Academy of Sciences, Wrocław, Poland) and from the American Type Culture Collection (ATCC). All the strains were stored at −80 °C in Roti-Store cryo vials and before the tests were transferred into fresh Mueller–Hinton broth (MHB, Biocorp, Warsaw, Poland) for bacteria or RPMI-1640 (Sigma-Aldrich, Steinheim, Germany) for fungi and incubated for 24 h at 37 °C. Then, the cultures were seeded on Mueller–Hinton agar (BioMaxima, Lublin, Poland) or Sabouraud dextrose agar (SDA, BioMaxima, Lublin, Poland) plates, respectively, and incubated as just mentioned. These agar cultures were used for further microbiological assays. Cell densities for all assays were adjusted spectrophotometrically (Multiskan GO Microplate Spectrophotometer, Thermo Fisher Scientific, Vantaa, Finland) at 600 and 660 nm for bacteria and fungi, respectively.
(§2) The assay was performed to evaluate the effect of the lipopeptides in preventing biofilm formation. The preparation of inoculums was followed by a ca. 500-fold dilution of the 24 h cultures of microorganisms. Briefly, 50 μL of the compounds in the concentration range, diluted in appropriate medium, were prepared on 96-well polystyrene flat-bottom plates. Subsequently, the 50 μL of the bacterial/fungal inoculums were added to reach the same microbial density as that in the MBEC assay. After 24 h of incubation at 37 °C, the wells were rinsed three times with PBS and the fresh media with resazurin (4 g/L) were added. The MBICs were read after 1 h. All experiments were conducted in triplicate.

[2] = tested on: Candida glabrata ATCC 15126; settings: ATCC 15126, 24 h
Description: as §1, §2

[3] = tested on: Staphylococcus aureus ATCC 25923; settings: ATCC 25923, 24 h
Description: as §1, §2

[4] = tested on: Candida albicans ATCC 10231; settings: ATCC 10231, 24 h
Description: as §1, §2

[5] = tested on: Staphylococcus epidermidis ATCC 14990; settings: ATCC 14990, 24 h
Description: as §1, §2

[6] = tested on: Candida lipolytica PCM 2680-FY; settings: 24 h
Description: as §1, §2

[7] = tested on: Candida tropicalis PCM 2709-FY; settings: PCM 2709-FY, 24 h
Description: as §1, §2

[8] = tested on: Escherichia coli ATCC 25922; settings: ATCC 25922, 24 h
Description: as §1, §2

[9] = tested on: human red blood cells (hRBCs); test: Hemolysis assay; settings: peptide concentration causing 50% hemolysis; 4% (v/v) hRBCs in PBS, 1 h, 37 °C, absorbance 540 nm, triplicate
Description: The hemolysis assay was performed by using the method reported previously. Fresh human red blood cells (hRBCs) with anticoagulant (EDTA) were rinsed three times with a PBS by centrifugation at 800× g for 10 min and diluted with PBS. The lipopeptides were serially diluted on a 96-well microtiter polystyrene plate and hRBCs were added up to a final volume of 100 μL. The peptide concentration ranged between 0.5 and 256 μg/mL and the final hRBCs concentration was 4% (v/v). Controls for zero hemolysis (blank) and 100% hemolysis consisted of hRBCs suspended in PBS and 1% of Triton-X 100, respectively. The plate was incubated for 1 h at 37 °C and then centrifuged (800× g, 10 min, 4 °C). Subsequently, the supernatant was […] to new microtiter plates and the absorbance at 540 nm was measured. All experiments were conducted in triplicate. HC50 was calculated using an ic50.tk tool. Protocol of the study received approval from the local Bioethics Committee at the Medical University of Gdańsk (NKBBN/262/2019, approval date: 10 June 2019).

[10] = tested on: human keratinocytes (HaCaT); test: MTT assay; settings: 24 h incubation at 37 °C, six replicates per concentration, repeated at least twice
Description: (§3) To assess the cytotoxicity of the test lipopeptides (IC50), the classic MTT assay on 96-well polystyrene plates was performed for human keratinocytes (HaCaT) and human cervical adenocarcinoma cell line (HeLa S3) acquired from the ATCC. The assay utilizes colorimetric determination of the cell metabolic activity and the color intensity reflects the number of live cells that can be measured spectrophotometrically. The cell line was cultured in a Dulbecco’s modified Eagle Medium (Invitrogen) supplemented with 10% fetal bovine serum (v/v), 100 units/mL of penicillin, 100 μg/mL of streptomycin, and 2 mM l-glutamine and was stored at 37 °C in a humidified 5% CO2 incubator. Briefly, a day after plating of 500 cells per well, a series of concentrations (0.1–200 μg/mL) of the test compounds were applied. DMSO was added to the control cells at a final concentration of 1.0% (v/v), which was related to the maximal concentration of the solvent compounds used in the experiment. After 24 h of incubation with the lipopeptides at 37 °C in a humidified 5% CO2 incubator, a medium containing 1 mg/mL of MTT (3-(4,5-dimethylthiazol-2-yl)-2,5-diphenyltetrazolium bromide) was added to the wells up to a final concentration of 0.5 mg/mL. Subsequently, the plates were incubated at 37 °C for 4 h. Then, the medium was removed by suction, and the formazan product was solubilized with DMSO. The background absorbance at 630 nm was subtracted from that at 570 nm for each well (Epoch, BioTek Instruments, Winooski, VT, USA). Six replicates were conducted for each concentration. All experiments were repeated at least twice and the resulting IC50 values were calculated with a GraFit 7 software (v. 7.0, Erithacus, Berkley, CA, USA).

[11] = tested on: human cervical adenocarcinoma cell line (HeLa S3); test: MTT assay; settings: 24 h incubation at 37 °C, six replicates per concentration, repeated at least twice
Description: as §3

| HeLa IC50 [11] [µg/mL] | Structure (SMILES) | MBIC P. aeruginosa [1] [µg/mL] | MBIC C. glabrata [2] [µg/mL] | MBIC S. aureus [3] [µg/mL] | MBIC C. albicans [4] [µg/mL] | MBIC S. epidermidis [5] [µg/mL] | MBIC C. lipolytica [6] [µg/mL] | MBIC C. tropicalis [7] [µg/mL] | MBIC E. coli [8] [µg/mL] | HC50 [9] [µg/mL] | HaCaT IC50 [10] [µg/mL] |
| --- | --- | --- | --- | --- | --- | --- | --- | --- | --- | --- | --- |
| 3.6 ± 0.5 | CCCCCCCCCCCCCCCC(=O)N[C@@H](CCCCN)C(=O)N[C@@H](CCCCN)C(=O)N[C@@H](CCCCN)C(=O)N[C@@H](CCCNC(=N)N)C(N)=O [L6, C16-KKKR-NH2] (Palmitoyl-KKKR-NH2) | 64 | 64 | 32 | 64 | 8 | 32 | 16 | 32 | 89.7 ± 2.4 | 7.5 ± 0.8 |
| 6.2 ± 2.7 | CCCCCCCCCCCCCCCC(=O)N[C@@H](CCCCN)C(=O)N[C@@H](CCCCN)C(=O)N[C@@H](CCCNC(=N)N)C(=O)N[C@@H](CCCCN)C(N)=O [L5, C16-KKRK-NH2] (Palmitoyl-KKRK-NH2) | 64 | 128 | 32 | 64 | 16 | 32 | 16 | 32 | 96.7 ± 1.4 | 2.4 ± 0.4 |
| 25.5 ± 2.9 | CCCCCCCCCCCCCCCC(=O)N[C@H]1CSSC[C@@H](C(N)=O)NC(=O)[C@H](CCCCN)NC(=O)[C@H](CCCCN)NC(=O)[C@H](CCCCN)NC1=O [C1, C16-CKKKC-NH2] (Palmitoyl-CKKKC-NH2; disulfide 1-5) | 128 | 32 | 16 | 32 | 16 | 16 | 32 | 64 | 43.9 ± 3.5 | 23.6 ± 6.0 |

| Structure (SMILES) | HeLa IC50 [11] [µg/mL] | MBIC P. aeruginosa [1] [µg/mL] | MBIC C. glabrata [2] [µg/mL] | MBIC S. aureus [3] [µg/mL] | MBIC C. albicans [4] [µg/mL] | MBIC S. epidermidis [5] [µg/mL] | MBIC C. lipolytica [6] [µg/mL] | MBIC C. tropicalis [7] [µg/mL] | MBIC E. coli [8] [µg/mL] | HC50 [9] [µg/mL] | HaCaT IC50 [10] [µg/mL] |
| --- | --- | --- | --- | --- | --- | --- | --- | --- | --- | --- | --- |
| CCCCCCCCCCCCCCCC(=O)N[C@@H](CCCCN)C(=O)N[C@@H](CCCCN)C(=O)N[C@@H](CCCCN)C(=O)N[C@@H](CCCCN)C(N)=O [L2, C16-KKKK-NH2] (Palmitoyl-KKKK-NH2) | 12.8 ± 1.1 | 64 | 128 | 32 | 128 | 16 | 32 | 16 | 32 | 105.9 ± 8.0 | 23.5 ± 1.3 |
